This test deals with T1, FPR1 (Homo sapiens, UniProt P21462).
T1 construct: host or cells: CHO (PathHunter CHO-FPR1 β-arrestin cells)
T1 sequence (P21462 1-350): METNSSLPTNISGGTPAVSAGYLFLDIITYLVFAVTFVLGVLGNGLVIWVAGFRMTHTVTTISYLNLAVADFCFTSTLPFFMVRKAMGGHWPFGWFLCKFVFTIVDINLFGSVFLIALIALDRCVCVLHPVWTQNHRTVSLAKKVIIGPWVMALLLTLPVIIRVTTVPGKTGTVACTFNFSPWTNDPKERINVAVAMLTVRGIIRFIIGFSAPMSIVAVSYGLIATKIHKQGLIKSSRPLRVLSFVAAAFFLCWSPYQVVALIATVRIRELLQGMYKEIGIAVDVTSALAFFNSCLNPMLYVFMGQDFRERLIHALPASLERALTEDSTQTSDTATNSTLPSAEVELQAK
The test can be described thus: FPR1 β-arrestin recruitment assay (PathHunter CHO-FPR1, antagonistic mode). The following applies: CHO FPR1 β-arrestin cells; antagonistic assay vs reference agonist fMLF at its EC80; 60 min preincubation. It is filed as cell-based. The procedure:
2.2 FPR1 β-Arrestin Recruitment Assay
The PathHunter CHO—FPR1 (DiscoverX) assay was performed according to the manufacturer's protocol. In brief, CHO FPR1 β-arrestin cells were seeded at a density of 9000 cells per well in 20 μl of Ham's F12 medium (Invitrogen) in black 384-well culture plates and incubated overnight at 37° C. in a humidified atmosphere with 5% CO2. The next day, serial dilutions of the β-hairpin peptidomimetics of this invention have been prepared in DMSO and subsequently diluted in HBSS buffer supplemented with 20 mM Hepes and 0.1% BSA.
For antagonistic assay, 5 μl of compound solution or buffer was added to the cells with a final DMSO concentration of 0.5% (v/v). The plate was incubated for 60 min at 37° C. with 5% CO2 before addition of […] of the reference agonist fMLF peptide (Sigma-Aldrich) at its EC80 concentration. After 90 min of incubation at 37° C. with 5% CO2, 15 μl of beta-Glo detection reagent (Promega) were added. Reaction was developed for 20 min at room temperature and chemiluminescence was measured with a Victor2V (Perkin Elmer) luminescence reader.
(Arrestin recruitment assays detect the binding of arrestin to an activated receptor.)

Where a SMILES comes first, the peptide text is derived from it. Bridges are numbered along the chain shown (N, C = ends). [ ]: non-standard residue; d: D form. Pro(4R-NH2) = N[C@H]1CN[C@H](C(=O)O)C1; Dab = NCC[C@H](N)C(=O)O

As a reminder, the IC50 is the concentration needed to halve the response being measured. In the case of `CC[C@H](C)[C@@H]1NC(=O)[C@H]([C@@H](C)O)NC(=O)[C@H](Cc2c[nH]c3ccccc23)NC(=O)[C@H]2CCCN2C(=O)CNC(=O)[C@H](Cc2c[nH]cn2)NC(=O)[C@@H]2CSSC[C@H](NC1=O)C(=O)N[C@@H](Cc1ccc(O)cc1)C(=O)N[C@@H](CCC(=O)O)C(=O)N[C@@H](CCCCN)C(=O)N1CCC[C@@H]1C(=O)N1C[C@H](N)C[C@H]1C(=O)N[C@@H](Cc1ccc(O)cc1)C(=O)N[C@@H](Cc1c[nH]cn1)C(=O)N[C@@H](CCCCN)C(=O)N2` [compound 83, cyclo(-Tyr-His-Lys-Cys-His-Gly-^DPro-Trp-Thr-IIe-Cys-Tyr-Glu-Lys-^DPro-Pro((4R)NH2)-)] (cyclo(YHKCHG[dP]WTICYEK[dP][Pro(4R-NH2)]); disulfide 4-11), the concentration for half-maximal inhibition (IC50) was found to be 0.082 ± 0.051 µM. Next, `CC[C@H](C)[C@@H]1NC(=O)[C@H]([C@@H](C)O)NC(=O)[C@H](Cc2c[nH]c3ccccc23)NC(=O)[C@H]2CCCN2C(=O)CNC(=O)[C@H](Cc2c[nH]c3ccccc23)NC(=O)[C@@H]2CSSC[C@H](NC1=O)C(=O)N[C@@H]([C@@H](C)O)C(=O)N[C@@H](CCC(N)=O)C(=O)N[C@@H](CCCCN)C(=O)N1CCC[C@@H]1C(=O)N1CCC[C@H]1C(=O)N[C@@H](Cc1ccc(O)cc1)C(=O)N[C@@H](Cc1c[nH]cn1)C(=O)N[C@@H](C)C(=O)N2` [compound 34, cyclo(-Tyr-His-Ala-Cys-Trp-Gly-^DPro-Trp-Thr-Ile-Cys-Thr-Gln-Lys-^DPro-Pro-)] (cyclo(YHACWG[dP]WTICTQK[dP]P); disulfide 4-11): 0.685 ± 0.068 µM.

Compound `CC[C@H](C)[C@@H]1NC(=O)[C@H]([C@@H](C)O)NC(=O)[C@H](Cc2c[nH]c3ccccc23)NC(=O)[C@H]2CCCN2C(=O)CNC(=O)[C@H](Cc2c[nH]cn2)NC(=O)[C@@H]2CSSC[C@H](NC1=O)C(=O)N[C@@H](Cc1ccc(O)cc1)C(=O)N[C@@H](CCC(=O)O)C(=O)N[C@@H](CCN)C(=O)N1CCC[C@@H]1C(=O)N1CCC[C@H]1C(=O)N[C@@H](Cc1ccc(O)cc1)C(=O)N[C@@H](Cc1c[nH]cn1)C(=O)N[C@@H](CCCCN)C(=O)N2` [compound 56, cyclo(-Tyr-His-Lys-Cys-His-Gly-^DPro-Trp-Thr-Ile-Cys-Tyr-Glu-Dab-^DPro-Pro-)] (cyclo(YHKCHG[dP]WTICYE[Dab][dP]P); disulfide 4-11) had an IC50 of 0.082 ± 0.029 µM. Next, `CC[C@H](C)[C@@H]1NC(=O)[C@H]([C@@H](C)O)NC(=O)[C@H](Cc2c[nH]c3ccccc23)NC(=O)[C@H]2CCCN2C(=O)CNC(=O)[C@H](Cc2c[nH]c3ccccc23)NC(=O)[C@@H]2CSSC[C@H](NC1=O)C(=O)N[C@@H](Cc1ccc(O)cc1)C(=O)N[C@@H](CCC(N)=O)C(=O)N[C@@H](CCCCN)C(=O)N1CCC[C@@H]1C(=O)N1CCC[C@H]1C(=O)N[C@@H](Cc1ccc(O)cc1)C(=O)N[C@@H](Cc1c[nH]cn1)C(=O)N[C@@H](C)C(=O)N2` [Ex. 40, cyclo(-Tyr-His-Ala-Cys-Trp-Gly-^DPro-Trp-Thr-Ile-Cys-Tyr-Gln-Lys-^DPro-Pro-)] (cyclo(YHACWG[dP]WTICYQK[dP]P); disulfide 4-11): 0.096 ± 0.03 µM; `CC[C@H](C)[C@@H]1NC(=O)[C@H]([C@@H](C)O)NC(=O)[C@H](Cc2c[nH]c3ccccc23)NC(=O)[C@H]2CCCN2C(=O)CNC(=O)[C@H](Cc2c[nH]c3ccccc23)NC(=O)[C@@H]2CSSC[C@H](NC1=O)C(=O)N[C@@H](Cc1ccc(O)cc1)C(=O)N[C@@H](CCC(=O)O)C(=O)N[C@@H](CCCCN)C(=O)N[C@H](C)C(=O)N1CCC[C@H]1C(=O)N[C@@H](Cc1ccc(O)cc1)C(=O)N[C@@H](Cc1c[nH]cn1)C(=O)N[C@@H](CCCCN)C(=O)N2` [compound 42, cyclo(-Tyr-His-Lys-Cys-Trp-Gly-^DPro-Trp-Thr-Ile-Cys-Tyr-Glu-Lys-^DAla-Pro-)] (cyclo(YHKCWG[dP]WTICYEK[dA]P); disulfide 4-11): 0.126 ± 0.078 µM; `CC[C@H](C)[C@@H]1NC(=O)[C@H]([C@@H](C)O)NC(=O)[C@H](Cc2c[nH]c3ccccc23)NC(=O)[C@H]2CCCN2C(=O)CNC(=O)[C@H](Cc2c[nH]cn2)NC(=O)[C@@H]2CSSC[C@H](NC1=O)C(=O)N[C@@H](Cc1ccc(O)cc1)C(=O)N[C@@H](CCC(=O)O)C(=O)N[C@@H](CCCCN)C(=O)N1CCC[C@@H]1C(=O)N[C@@H](CCN)C(=O)N[C@@H](Cc1ccc(O)cc1)C(=O)N[C@@H](Cc1c[nH]cn1)C(=O)N[C@@H](CCCCN)C(=O)N2` [Ex. 89, cyclo(-Tyr-His-Lys-Cys-His-Gly-^DPro-Trp-Thr-Ile-Cys-Tyr-Glu-Lys-^DPro-Dab-)] (cyclo(YHKCHG[dP]WTICYEK[dP][Dab]); disulfide 4-11): 0.189 ± 0.065 µM. Next, `CC[C@H](C)[C@@H]1NC(=O)[C@H]([C@@H](C)O)NC(=O)[C@H](Cc2c[nH]c3ccccc23)NC(=O)[C@H]2CCCN2C(=O)CNC(=O)[C@H](Cc2c[nH]cn2)NC(=O)[C@@H]2CSSC[C@H](NC1=O)C(=O)N[C@@H](Cc1ccc(O)cc1)C(=O)N[C@@H](CCC(N)=O)C(=O)N[C@@H](CCCCN)C(=O)N1CCC[C@@H]1C(=O)N1CCC[C@H]1C(=O)N[C@@H](Cc1ccc(O)cc1)C(=O)N[C@@H](Cc1c[nH]cn1)C(=O)N[C@@H](Cc1c[nH]c3ccccc13)C(=O)N2` [Ex. 11, cyclo(-Tyr-His-Trp-Cys-His-Gly-^DPro-Trp-Thr-Ile-Cys-Tyr-Gln-Lys-^DPro-Pro-)] (cyclo(YHWCHG[dP]WTICYQK[dP]P); disulfide 4-11): 0.177 ± 0.121 µM; `CC[C@H](C)[C@@H]1NC(=O)[C@H]([C@@H](C)O)NC(=O)[C@H](Cc2c[nH]c3ccccc23)NC(=O)[C@H]2CCCN2C(=O)CNC(=O)[C@H](Cc2c[nH]c3ccccc23)NC(=O)[C@@H]2CSSC[C@H](NC1=O)C(=O)N[C@@H](Cc1ccc(O)cc1)C(=O)N[C@@H](CCC(=O)O)C(=O)N[C@@H](CCCCN)C(=O)N[C@H](CCCCN)C(=O)N1CCC[C@H]1C(=O)N[C@@H](Cc1ccc(O)cc1)C(=O)N[C@@H](Cc1c[nH]cn1)C(=O)N[C@@H](CCCCN)C(=O)N2` [compound 43, cyclo(-Tyr-His-Lys-Cys-Trp-Gly-^DPro-Trp-Thr-Ile-Cys-Tyr-Glu-Lys-^DLys-Pro-)] (cyclo(YHKCWG[dP]WTICYEK[dK]P); disulfide 4-11): 0.126 ± 0.053 µM. Next, `CC[C@H](C)[C@@H]1NC(=O)[C@H]([C@@H](C)O)NC(=O)[C@H](Cc2c[nH]c3ccccc23)NC(=O)[C@@H](C)NC(=O)CNC(=O)[C@H](Cc2c[nH]cn2)NC(=O)[C@@H]2CSSC[C@H](NC1=O)C(=O)N[C@@H](Cc1ccc(O)cc1)C(=O)N[C@@H](CCC(=O)O)C(=O)N[C@@H](CCCCN)C(=O)N1CCC[C@@H]1C(=O)N[C@@H](CCC(=O)O)C(=O)N[C@@H](Cc1ccc(O)cc1)C(=O)N[C@@H](Cc1c[nH]cn1)C(=O)N[C@@H](CCCCN)C(=O)N2` [Ex. 4, cyclo(-Tyr-His-Lys-Cys-His-Gly-^DAla-Trp-Thr-Ile-Cys-Tyr-Glu-Lys-^DPro-Glu-)] (cyclo(YHKCHG[dA]WTICYEK[dP]E); disulfide 4-11): 0.077 ± 0.022 µM; `CC[C@H](C)[C@@H]1NC(=O)[C@H]([C@@H](C)O)NC(=O)[C@H](Cc2c[nH]c3ccccc23)NC(=O)[C@H]2CCCN2C(=O)CNC(=O)[C@H](Cc2c[nH]c3ccccc23)NC(=O)[C@@H]2CSSC[C@H](NC1=O)C(=O)N[C@@H](Cc1ccc(O)cc1)C(=O)N[C@@H](CCC(=O)O)C(=O)N[C@@H](CCCCN)C(=O)N1CCC[C@@H]1C(=O)N1CCC[C@H]1C(=O)N[C@@H](Cc1ccc(O)cc1)C(=O)N[C@@H](Cc1c[nH]cn1)C(=O)N[C@@H](CCCCN)C(=O)N2` [compound 51, cyclo(-Tyr-His-Lys-Cys-Trp-Gly-^DPro-Trp-Thr-Ile-Cys-Tyr-Glu-Lys-^DPro-Pro-)] (cyclo(YHKCWG[dP]WTICYEK[dP]P); disulfide 4-11): 0.054 ± 0.021 µM. With `CC[C@H](C)[C@@H]1NC(=O)[C@H]([C@@H](C)O)NC(=O)[C@H](Cc2c[nH]c3ccccc23)NC(=O)[C@H]2CCCN2C(=O)CNC(=O)[C@H](Cc2c[nH]c3ccccc23)NC(=O)[C@@H]2CSSC[C@H](NC1=O)C(=O)N[C@@H](Cc1ccc(O)cc1)C(=O)N[C@@H](CCC(=O)O)C(=O)N[C@@H](CCCCN)C(=O)N1CCC[C@@H]1C(=O)N[C@@H](CCCCN)C(=O)N[C@@H](Cc1ccc(O)cc1)C(=O)N[C@@H](Cc1c[nH]cn1)C(=O)N[C@@H](CCCCN)C(=O)N2` [compound 87, cyclo(-Tyr-His-Lys-Cys-Trp-Gly-^DPro-Trp-Thr-Ile-Cys-Tyr-Glu-Lys-^DPro-Lys-)] (cyclo(YHKCWG[dP]WTICYEK[dP]K); disulfide 4-11), the IC50 came out at 0.054 ± 0.021 µM. Next, `CC[C@H](C)[C@@H]1NC(=O)[C@H]([C@@H](C)O)NC(=O)[C@H](Cc2c[nH]c3ccccc23)NC(=O)[C@H]2CCCN2C(=O)CNC(=O)[C@H](Cc2c[nH]cn2)NC(=O)[C@@H]2CSSC[C@H](NC1=O)C(=O)N[C@@H](Cc1ccc(O)cc1)C(=O)N[C@@H](CCC(=O)O)C(=O)N[C@@H](CCCCN)C(=O)N1CCC[C@@H]1C(=O)N1CCC[C@H]1C(=O)N[C@@H](CC(=O)O)C(=O)N[C@@H](Cc1c[nH]cn1)C(=O)N[C@@H](CCCCN)C(=O)N2` [compound 66, cyclo(-Asp-His-Lys-Cys-His-Gly-^DPro-Trp-Thr-Ile-Cys-Tyr-Glu-Lys-^DPro-Pro-)] (cyclo(DHKCHG[dP]WTICYEK[dP]P); disulfide 4-11): 0.177 ± 0.028 µM.
